In ChEMBL document CHEMBL2150949, “Dibenzocycloheptanoids from the leaves of Cinnamomum subavenium” (J Nat Prod, 2012):

Experiment: Inhibition of Bacillus stearothermophilus alpha-glucosidase type 4
Parameters: species or system Geobacillus stearothermophilus

SMILES | IC50 [µM]
COc1cc2c(cc1O)-c1ccccc1CC=C2CO[C@@H]1O[C@H](CO)[C@@H](O)[C@H](O)[C@H]1O [SUBAVENOSIDE A] | 142
COCC1=CCc2cc(OC)ccc2-c2cc(O[C@@H]3O[C@H](CO)[C@@H](O)[C@H](O)[C@H]3O)c(OC)cc21 [SUBAVENOSIDE E] | 19
O=C(CCc1ccc(O)cc1)c1c(O)cc(O)cc1O[C@@H]1O[C@H](CO)[C@@H](O)[C@H](O)[C@H]1O [PHLORIZIN] | 60.5
OCCc1ccc(O)c(O)c1 [HYDROXYTYROSOL] | 109
CC/C=C/CCO[C@@H]1O[C@H](CO)[C@@H](O)[C@H](O)[C@H]1O | > 150
C[C@@H]1O[C@@H](OC[C@H]2O[C@@H](Oc3c(-c4ccc(O)cc4)oc4cc(O)cc(O)c4c3=O)[C@H](O)[C@@H](O)[C@@H]2O)[C@H](O)[C@H](O)[C@H]1O [NICOTIFLOROSIDE] | 110

Other lines, results leading:

IC50 [µM] | SMILES
50.7 | COc1cc2c(cc1O[C@@H]1O[C@H](CO)[C@@H](O)[C@H](O)[C@H]1O)-c1ccccc1CC=C2CO [SUBAVENOSIDE D]
> 150 | CCCC(=O)c1c(O)cc(O)cc1O[C@@H]1O[C@H](CO)[C@@H](O)[C@H](O)[C@H]1O
77.1 | COc1cc([C@@H]2Oc3c(OC)cc(CCCO)cc3[C@@H]2CO[C@@H]2OC[C@@H](O)[C@H](O)[C@H]2O)ccc1O
28.3 | O=C1C[C@@H](c2ccc(O)cc2)Oc2cc(O)cc(O[C@@H]3O[C@H](CO)[C@@H](O)[C@H](O)[C@H]3O)c21
> 150 | C=CCc1ccc(O[C@@H]2O[C@H](CO[C@@H]3OC[C@](O)(CO)[C@H]3O)[C@@H](O)[C@H](O)[C@H]2O)cc1
118 | COCC1=CCc2cc(OC)ccc2-c2cc(O)c(OC)cc21
0.034 | C[C@H]1O[C@H](O[C@H]2[C@H](O)[C@@H](O)[C@@H](O[C@H]3[C@H](O)[C@@H](O)C(O)O[C@@H]3CO)O[C@@H]2CO)[C@H](O)[C@@H](O)[C@@H]1N[C@H]1C=C(CO)[C@@H](O)[C@H](O)[C@H]1O (some centres undefined) [ACARBOSE]
39.8 | O=C1C[C@H](c2ccc(O)cc2)Oc2cc(O)cc(O[C@@H]3O[C@H](CO)[C@@H](O)[C@H](O)[C@H]3O)c21
